Results: patent US12421207B2 (CMG Pharmaceutical Co., Ltd., priority 2022, dated 2025)
Where two headings read alike, the source gives them in different places.

Experiments:
HCC827/ER cells = experiment: Cell viability assay (CellTiter-Glo 2.0), erlotinib-resistant HCC827/ER cells; assay type: cell-based, human; conditions: Homo sapiens, HCC827ER, read-out: Relative cell viability
Text: (§1) To explore c-MET and AXL mechanisms of EGFR TKI resistance, resistant cells of the EGFR TKI hypersensitive EGFR exon 19 mutant NSCLC cell line, HCC827 and PC9 were generated by exposing these cells to increasing concentrations of EGFR TKI for over 3 months.
(§2) Gefitinib-resistant cells were referred to as HCC827/GR. […] Osimertinib-resistant cells were referred to as HCC827/OR.

PC9/ER cells = experiment: Cell viability assay (CellTiter-Glo 2.0), erlotinib-resistant PC9/ER cells; assay type: cell-based; conditions: Homo sapiens, PC-9/ER, 72 h drug treatment, read-out: Relative cell viability, IC50 PC9ER
Text: as §1, §2

HCC827/OR cells = experiment: Cell viability assay (CellTiter-Glo 2.0), osimertinib-resistant HCC827/OR cells; assay type: cell-based, human; conditions: Homo sapiens, HCC827, 72 h drug treatment, read-out: Relative cell viability, IC50 HCC827OR
Text: as §1, §2

HCC827/GR cells = experiment: Cell viability assay (CellTiter-Glo 2.0), gefitinib-resistant HCC827/GR cells; assay type: cell-based, human; conditions: Homo sapiens, read-out: Relative cell viability, IC50 HCC827GR
Text: as §1
The human cell line HCC827 was purchased from the American Type Culture Collection (Manassas, VA), and the PC9 cell line was obtained from RIKEN Cell Bank (Ibaraki, Japan). […] Gefitinib-resistant cells were referred to as HCC827/GR. […] Osimertinib-resistant cells were referred to as HCC827/OR.
(§3) Cell viability assays were carried out by plating 1,000 cells per well of HCC827 or PC9 resistant cells, respectively, into white transparent-bottom 384-well plates. The cells were treated with each TKI across a 10-dose range from 1 nM to 10,000 nM. After 72 h of drug treatment, cell viability was measured using the CellTiter-Glo 2.0 assay (Promega, Madison, WI).
as §3

[1] = Table 4, 72 h drug treatment, combinations of EGFR TKIs and inhibitor of Formula (I)
[2] = Table 4, combinations of EGFR TKIs and inhibitor of Formula (I)
[3] = HCC827, Table 4, 72 h drug treatment, combinations of EGFR TKIs and inhibitor of Formula (I)
[4] = Table 2, 72 h drug treatment, EGFR TKI resistant cells, combination with EGFR TKI
[5] = Table 2, EGFR TKI resistant cells, combination with EGFR TKI
[6] = HCC827, Table 2, 72 h drug treatment, EGFR TKI resistant cells, combination with EGFR TKI

Compound | IC50 (HCC827/ER cells; [1]) [nM] | IC50 (PC9/ER cells; [2]) [nM] | IC50 (HCC827/OR cells; [2]) [nM] | IC50 (HCC827/GR cells; [3]) [nM] | IC50 (HCC827/ER cells; [4]) [nM] | IC50 (PC9/ER cells; [5]) [nM] | IC50 (HCC827/OR cells; [5]) [nM] | IC50 (HCC827/GR cells; [6]) [nM] | IC50 (HCC827/GR cells; HCC827, 72 h) [nM]
CN(C)C(=O)Cn1cc(C(=O)Nc2ccc(Oc3ccnc(N)c3C#CCC3CCNCC3)c(F)c2)c(=O)n(-c2ccc(F)cc2)c1=O [Example 38, N-(4-((2-amino-3-(3-(piperidin-4-yl)prop-1-yn-1-yl)pyridin-4-yl)oxy)-3-fluorophenyl)-1-(2-(dimethylamino)-2-oxoethyl)-3-(4-fluorophenyl)-2,4-dioxo-1,2,3,4-tetrahydropyrimidine-5-carboxamide] | < 10000 | < 10000 | < 10000 | < 10000 |  |  |  |  | 
CC(C)n1cc(C(=O)Nc2ccc(Oc3ccnc(N)c3C#CC(=O)N3CCNCC3)c(F)c2)c(=O)n(-c2ccc(F)cc2)c1=O [Example 1, N-(4-(2-amino-3-(3-oxo-3-(piperazin-1-yl)prop-1-ynyl)pyridin-4-yloxy)-3-fluorophenyl)-3-(4-fluorophenyl)-1-isopropyl-2,4-dioxo-1,2,3,4-tetrahydropyrimidine-5-carboxamide] |  |  |  |  | < 10 | < 10 | < 10 | < 10 | 
Cc1noc(C)c1-c1c(Oc2ccc(NC(=O)c3cn(C(C)C)c(=O)n(-c4ccc(F)cc4)c3=O)cc2F)ccnc1N [Example 11] |  |  |  |  | < 10000 | < 10000 | < 10000 | < 10000 | 
CC(C)n1cc(C(=O)Nc2ccc(Oc3ccnc(N)c3C#CCN3CCNCC3)c(F)c2)c(=O)n(-c2ccc(F)cc2)c1=O [Example 17] |  |  |  |  | < 100 | < 100 | < 100 | < 100 | 
CC(C)n1cc(C(=O)Nc2ccc(Oc3ccnc(N)c3-c3ccc(Oc4ccccc4)cc3)c(F)c2)c(=O)n(-c2ccc(F)cc2)c1=O [Example 10] |  |  |  |  | < 1000 | < 100 | < 1000 | < 1000 | 
C=CCn1cc(C(=O)Nc2ccc(Oc3ccnc(N)c3C#CCN3CCOCC3)c(F)c2)c(=O)n(CC=C)c1=O [Example 67, 1,3-diallyl-N-(4-(2-amino-3-(3-morpholinoprop-1-ynyl)pyridin-4-yloxy)-3-fluorophenyl)-2,4-dioxo-1,2,3,4-tetrahydropyrimidine-5-carboxamide] | < 100 | < 1000 | < 1000 | < 100 |  |  |  |  | 
Cn1nc(C(=O)Nc2ccc(Oc3ccnc(N)c3C#CCC3CCNCC3)c(F)c2)c(=O)n(-c2ccc(F)cc2)c1=O [Example 46, N-(4-((2-amino-3-(3-(piperidin-4-yl)prop-1-yn-1-yl)pyridin-4-yl)oxy)-3-fluorophenyl)-4-(4-fluorophenyl)-2-methyl-3,5-dioxo-2,3,4,5-tetrahydro-1,2,4-triazine-6-carboxamide] | < 10000 | < 10000 | < 10000 | < 1000 |  |  |  |  | 
CN1CCC(CC#Cc2c(Oc3ccc(NC(=O)c4c[nH]c(=O)n(-c5ccc(F)cc5)c4=O)cc3F)ccnc2N)CC1 [Example 54, N-(4-(2-amino-3-(3-(1-methylpiperidin-4-yl)prop-1-ynyl)pyridin-4-yloxy)-3-fluorophenyl)-3-(4-fluorophenyl)-2,4-dioxo-1,2,3,4-tetrahydropyrimidine-5-carboxamide] | < 1000 | < 1000 | < 1000 | < 1000 |  |  |  |  | 
COCCN1CCC(C#Cc2c(Oc3ccc(NC(=O)c4cn(C(C)C)c(=O)n(-c5ccc(F)cc5)c4=O)cc3F)ccnc2N)CC1 [Example 16] |  |  |  |  | < 10 | < 10 | < 10 | < 10 | 
CC(C)n1cc(C(=O)Nc2ccc(Oc3ccnc(N)c3C#CC(C)(C)N3CCOCC3)c(F)c2)c(=O)n(-c2ccc(F)cc2)c1=O [Example 25, N-(4-(2-amino-3-(3-methyl-3-morpholinobut-1-ynyl)pyridin-4-yloxy)-3-fluorophenyl)-3-(4-fluorophenyl)-1-isopropyl-2,4-dioxo-1,2,3,4-tetrahydropyrimidine-5-carboxamide] |  |  |  |  | < 10 | < 10 | < 10 | < 10 | 
CC(C)n1cc(C(=O)Nc2ccc(Oc3ccnc(N)c3C#CCN3CCOCC3)c(F)c2)c(=O)n(-c2ccc(F)cc2)c1=O [Example 24, N-(4-(2-amino-3-(3-morpholinoprop-1-ynyl)pyridin-4-yloxy)-3-fluorophenyl)-3-(4-fluorophenyl)-1-isopropyl-2,4-dioxo-1,2,3,4-tetrahydropyrimidine-5-carboxamide] |  |  |  |  | < 10 | < 10 | < 10 | < 10 | 
Cn1nc(C(=O)Nc2ccc(Oc3ccnc(N)c3C#CC(C)(C)N3CCNCC3)c(F)c2)c(=O)n(-c2ccc(F)cc2)c1=O [Example 47, N-(4-(2-amino-3-(3-methyl-3-(piperazin-1-yl)but-1-ynyl)pyridin-4-yloxy)-3-fluorophenyl)-4-(4-fluorophenyl)-2-methyl-3,5-dioxo-2,3,4,5-tetrahydro-1,2,4-triazine-6-carboxamide] | < 10000 | < 10000 | < 10000 | < 10000 |  |  |  |  | 
C=CCn1cc(C(=O)Nc2ccc(Oc3ccnc(N)c3C#CCC3CCNCC3)c(F)c2)c(=O)n(CC=C)c1=O [Example 71, 1,3-dialyl-N-(4-(2-amino-3-(3-(piperidin-4-yl)prop-1-ynyl)pyridin-4-yloxy)-3-fluorophenyl)-2,4-dioxo-1,2,3,4-tetrahydropyrimidine-5-carboxamide] | < 1000 | < 1000 | < 1000 | < 1000 |  |  |  |  | 
COCCN1CCC(CC#Cc2c(Oc3ccc(NC(=O)c4cn(C(C)C)c(=O)n(-c5ccc(F)cc5)c4=O)cc3F)ccnc2N)CC1 [Example 28, N-(4-(2-amino-3-(3-(1-(2-methoxyethyl)piperidin-4-yl)prop-1-ynyl)pyridin-4-yloxy)-3-fluorophenyl)-3-(4-fluorophenyl)-1-isopropyl-2,4-dioxo-1,2,3,4-tetrahydropyrimidine-5-carboxamide] |  |  |  |  | < 10 | < 10 | < 10 | < 10 | 
Cc1nc(Cn2cc(C(=O)Nc3ccc(Oc4ccnc(N)c4C#CC(C)(C)N4CCNCC4)c(F)c3)c(=O)n(-c3ccc(F)cc3)c2=O)cs1 [Example 41, N-(4-((2-amino-3-(3-methyl-3-(piperazin-1-yl)but-1-yn-1-yl)pyridin-4-yl)oxy)-3-fluorophenyl)-3-(4-fluorophenyl)-1-((2-methylthiazol-4-yl)methyl)-2,4-dioxo-1,2,3,4-tetrahydropyrimidine-5-carboxamide] | < 1000 | < 1000 | < 1000 | < 1000 |  |  |  |  | 
COCCN1CCN(CC#Cc2c(Oc3ccc(NC(=O)c4cn(C(C)C)c(=O)n(-c5ccc(F)cc5)c4=O)cc3F)ccnc2N)CC1 [Example 18, N-(4-(2-amino-3-(3-(4-(2-methoxyethyl)piperazin-1-yl)prop-1-ylny)pyridin-4-yloxy)-3-fluorophenyl)-3-(4-fluorophenyl)-1-isopropyl-2,4-dioxo-1,2,3,4-tetrahydropyrimidine-5-carboxamide] |  |  |  |  | < 10 | < 100 | < 10 | < 100 | 
CN(C)C(=O)Cn1cc(C(=O)Nc2ccc(Oc3ccnc(N)c3C#CCN3CCOCC3)c(F)c2)c(=O)n(-c2ccc(F)cc2)c1=O [Example 34, N-(4-((2-amino-3-(3-morpholinoprop-1-yn-1-yl)pyridin-4-yl)oxy)-3-fluorophenyl)-1-(2-(dimethylamino)-2-oxoethyl)-3-(4-fluorophenyl)-2,4-dioxo-1,2,3,4-tetrahydropyrimidine-5-carboxamide] | < 1000 | < 10000 | < 10000 | < 1000 |  |  |  |  | 
CN1CCN(C(C)(C)C#Cc2c(Oc3ccc(NC(=O)c4cn(CC(=O)N(C)C)c(=O)n(-c5ccc(F)cc5)c4=O)cc3F)ccnc2N)CC1 [Example 36, N-(4-((2-amino-3-(3-methyl-3-(4-methylpiperazin-1-yl)but-1-yn-1-yl)pyridin-4-yl)oxy)-3-fluorophenyl)-1-(2-(dimethylamino)-2-oxoethyl)-3-(4-fluorophenyl)-2,4-dioxo-1,2,3,4-tetrahydropyrimidine-5-carboxamide] | < 10000 | < 10000 | < 10000 | < 10000 |  |  |  |  | 
CC(C)n1cc(C(=O)Nc2ccc(Oc3ccnc(N)c3Cl)c(F)c2)c(=O)n(-c2ccc(F)cc2)c1=O [Example 6, N-(4-(2-amino-3-chloropyridin-4-yloxy)-3-fluorophenyl)-3-(4-fluorophenyl)-1-isopropyl-2,4-dioxo-1,2,3,4-tetrahydropyrimidine-5-carboxamide] |  |  |  |  |  |  |  |  | < 100
